Experimental data taken from US20240051975A1 (TSINGHUA UNIVERSITY, priority 2020, published 2024).

Target: NAMPT (Homo sapiens, UniProt P43490)
Assay: NAMPT enzyme activity assay coupled with NMNAT1 and ADH (NADH fluorescence)
Conditions: AUC of dose-response curve (0.1, 0.3, 1, 3, 10 μM) relative to AUC of NAT (NAT = 1); 1 μM NAMPT, 200 μM NAM
Procedure: The NAMPT enzyme activity was assayed by a method coupled with the three enzymes: NAMPT, NMNAT1 and alcohol dehydrogenase (ADH). NAMPT synthesizes NMN from NAM and PRPP, NMNAT1 synthesizes NAD from NMN produced in the first step, and ADH converts NAD into detectable fluorescent NADH. […] The reaction was initiated by adding 200 μM nicotinamide (NAM) and mixing gently. The enzyme activity of NAMPT was expressed as the concentration of NADH generated per minute (the molar value was equal to NAD). The relative enzyme activity of NAMPT in each compound-treated group was normalized by the value of the DMSO-treated group, and a dose-response curve was drawn to evaluate the effect of individual compounds on NAMPT enzyme activity. The area under the dose-response curve (AUC, area under curve) was then calculated for individual compound and compared to the AUC of NAT, so that the obtained relative value quantitative Eauc represented the enzyme activation activity of each compound, and the specific calculation formula was shown in FIG. 3.

NAMPT, sequence (P43490 whole entry, species assumed): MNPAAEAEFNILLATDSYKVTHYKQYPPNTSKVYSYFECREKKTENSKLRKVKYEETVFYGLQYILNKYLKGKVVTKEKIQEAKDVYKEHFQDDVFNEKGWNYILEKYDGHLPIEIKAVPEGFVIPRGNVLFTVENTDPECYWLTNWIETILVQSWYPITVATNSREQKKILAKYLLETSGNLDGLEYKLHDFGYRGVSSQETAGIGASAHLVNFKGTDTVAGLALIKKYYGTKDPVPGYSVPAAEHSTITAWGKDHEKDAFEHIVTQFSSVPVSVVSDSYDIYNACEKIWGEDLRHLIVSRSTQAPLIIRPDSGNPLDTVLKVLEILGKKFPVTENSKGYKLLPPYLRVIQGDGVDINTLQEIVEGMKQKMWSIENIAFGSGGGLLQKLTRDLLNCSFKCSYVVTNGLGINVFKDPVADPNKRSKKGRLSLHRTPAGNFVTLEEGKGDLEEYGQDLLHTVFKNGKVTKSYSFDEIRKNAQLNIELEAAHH

| SMILES | Relative activation of NAMPT activity |
| --- | --- |
| CC(C)(C)c1ccccc1OCC(=O)Nc1cccc(O)c1 [Compound 3, 2-(2-(tert-butyl)phenoxy)-N-(3-hydroxyphenyl)acetamide] | −0.1895 |
| CC(C)(C)c1ccccc1OCC(=O)Nc1ccccc1O [Compound 4, 2-(2-(tert-butyl)phenoxy)-N-(2-hydroxyphenyl)acetamide] | −0.1833 |
| CC(C)(C)c1ccccc1OCC(=O)Nc1ccc(-c2ccccc2)cc1 [Compound 12] | −0.0947 |
| O=C(COc1ccccc1-c1ccccc1)Nc1ccc(O)cc1 [Compound 17, 2-([1,1′-biphenyl]-2-yloxy)-N-(4-hydroxyphenyl)acetamide] | 0.3353 |
| CC(C)(C)c1ccccc1OCC(=O)Nc1ccc(S(N)(=O)=O)cc1 [Compound 26, 2-(2-(tert-butyl)phenoxy)-N-(4-sulfamoylphenyl)acetamide] | −0.2346 |
| CC(C)(C)OC(=O)Nc1ccc(NC(=O)COc2ccccc2C(C)(C)C)cc1 [Compound 29, tert-butyl (4-(2-(2-(tert-butyl)phenoxy)acetamido)phenyl)carbamate] | −0.1978 |
| CC(C)(C)c1ccccc1OCC(=O)Nc1ccc(O)cc1C(=O)O [Compound 35, 2-(2-(2-(tert-butyl)phenoxy)acetamido)-5-hydroxybenzoic acid] | −0.0889 |
| CC(C)(C)c1ccccc1OCC(=O)Nc1ccc(O)c(O)c1 [Compound 37, 2-(2-(tert-butyl)phenoxy)-N-(3,4-dihydroxyphenyl)acetamide] | −0.1366 |
| CC(C)(C)c1ccccc1OCC(=O)Nc1ccc(O)cc1C(F)(F)F [Compound 38, 2-(2-(tert-butyl)phenoxy)-N-(4-hydroxy-2-(trifluoromethyl)phenyl)acetamide] | −0.12 |
| CC(C)(C)c1ccccc1OCC(=O)Nc1ccc(O)c(C(F)(F)F)c1 [Compound 39, 2-(2-(tert-butyl)phenoxy)-N-(4-hydroxyl-3-(trifluoromethyl)phenyl)acetamide] | −0.1435 |
| CC(C)(C)c1ccccc1OCC(=O)Nc1ccc(O)c(Cl)c1 [Compound 42, 2-(2-(tert-butyl)phenoxy)-N-(3-chloro-4-hydroxyphenyl)acetamide] | −0.1833 |
| Cc1cc(O)ccc1NC(=O)COc1ccccc1C(C)(C)C [Compound 43] | −0.168 |
| COc1cc(NC(=O)COc2ccccc2C(C)(C)C)ccc1O [Compound 44, 2-(2-(tert-butyl)phenoxy)-N-(4-hydroxyl-3-methoxyphenyl)acetamide] | −0.1512 |
| COC(=O)c1cc(NC(=O)COc2ccccc2C(C)(C)C)ccc1O [Compound 45, 5-(2-(2-(tert-butyl)phenoxy)acetamido)-2-hydroxybenzoic acid methyl ester] | −0.3625 |
| CC(=O)c1cc(NC(=O)COc2ccccc2C(C)(C)C)ccc1O [Compound 46, N-(3-acetyl-4-hydroxyphenyl)-2-(2-(tert-butyl)phenoxy)acetamide] | −0.1777 |
| CC(C)(C)c1ccccc1OCC(=O)Nc1ccc(O)c(CO)c1 [Compound 47, 2-(2-(tert-butyl)phenoxy)-N-(4-hydroxyl-3-(hydroxymethyl)phenyl)acetamide] | −0.1983 |
| CC(C)(C)c1ccccc1OCC(=O)Nc1ccc(O)cc1O [Compound 48, 2-(2-(tert-butyl)phenoxy)-N-(2,4-dihydroxyphenyl)acetamide] | −0.1608 |
| CC(C)(C)c1ccccc1OCC(=O)Nc1ccc(O)cn1 [Compound 49, 2-(2-(tert-butyl)phenoxy)-N-(5-hydroxypyridin-2-yl)acetamide] | −0.0947 |
| CC(C)(C)c1ccccc1OCC(=O)Nc1ccc(O)cc1CO [Compound 50, 2-(2-(tert-butyl)phenoxy)-N-(4-hydroxyl-2-(hydroxymethyl)phenyl)acetamide] | −0.1356 |

The remaining lines, values ahead:

| Relative activation of NAMPT activity | SMILES |
| --- | --- |
| −0.168 | COc1ccc(NC(=O)COc2ccccc2C(C)(C)C)cc1 [Compound 5, 2-(2-(tert-butyl)phenoxy)-N-(4-methoxyphenyl)acetamide] |
| −0.1512 | CCOC(=O)c1ccc(NC(=O)COc2ccccc2C(C)(C)C)cc1 [Compound 6, ethyl 4-(2-(2-(tert-butyl)phenoxy)acetamido) benzoate] |
| −0.1777 | CN(C)c1ccc(NC(=O)COc2ccccc2C(C)(C)C)cc1 [Compound 7, 2-(2-(tert-butyl)phenoxy)-N-(4-(dimethylamino)phenyl)acetamide] |
| −0.1983 | CC(C)(C)c1ccccc1OCC(=O)Nc1ccc(Cl)cc1 [Compound 8, 2-(2-(tert-butyl)phenoxy)-N-(4-chlorophenyl)acetamide] |
| −0.2123 | CC(C)(C)c1ccccc1OCC(=O)Nc1ccc(F)cc1 [Compound 9, 2-(2-(tert-butyl)phenoxy)-N-(4-fluorophenyl)acetamide] |
| −0.1608 | Cc1ccc(NC(=O)COc2ccccc2C(C)(C)C)cc1 [Compound 10, 2-(2-(tert-butyl)phenoxy)-N-(p-tolyl)acetamide] |
| −0.1409 | CC(C)(C)c1ccccc1OCC(=O)Nc1ccc(Oc2ccccc2)cc1 [Compound 11, 2-(2-(tert-butyl)phenoxy)-N-(4-phenoxyphenyl)acetamide] |
| 0.2733 | CC(C)(C)c1cccc(OCC(=O)Nc2ccc(O)cc2)c1 [Compound 13, 2-(3-(tert-butyl)phenoxy)-N-(4-hydroxyphenyl)acetamide] |
| −0.1236 | CC(C)(C)c1ccc(OCC(=O)Nc2ccc(O)cc2)cc1 [Compound 14, 2-(4-(tert-butyl)phenoxy)-N-(4-hydroxyphenyl)acetamide] |
| 0.0971 | O=C(COc1ccccc1)Nc1ccc(O)cc1 [Compound 16, N-(4-hydroxyphenyl)-2-phenoxyacetamide] |
| −0.142 | CC(C)(C)c1cccc(C(C)(C)C)c1OCC(=O)Nc1ccc(O)cc1 [Compound 18, 2-(2,6-di-tert-butylphenoxy)-N-(4-hydroxyphenyl)acetamide] |
| 0.1507 | Cc1cccc(OCC(=O)Nc2ccc(O)cc2)c1 [Compound 19, N-(4-hydroxyphenyl)-2-(m-tolyloxy)acetamide] |
| −0.2226 | CC(C)(C)c1ccccc1CNC(=O)Nc1ccc(O)cc1 [Compound 25, 1-(2-tert-butyl)benzyl-3-(4-hydroxyl)phenylurea] |
| 0.1217 | CC(C)(C)c1ccccc1OCC(=O)Nc1ccc(B(O)O)cc1 [Compound 27] |
| −0.2198 | CC(C)(C)c1ccccc1OCC(=O)Nc1ccc(CO)cc1 [Compound 28, 2-(2-(tert-butyl)phenoxy)-N-(4-(hydroxymethyl)phenyl)acetamide] |
| 0.8075 | CC(C)(C)c1ccccc1OCC(=O)Nc1ccc(N)cc1 [Compound 30, N-(4-aminophenyl)-2-(2-(tert-butyl)phenoxy)acetamide] |
| −0.2396 | CC(C)(C)c1ccccc1OCC(=O)Nc1ccc(C#N)cc1 [Compound 32, 2-(2-(tert-butyl)phenoxy)-N-(4-cyanophenyl)acetamide] |
| −0.1619 | CC(C)(C)c1ccccc1OCC(=O)Nc1ccc(C(=O)O)cc1 [Compound 33, 4-(2-(2-(tert-butyl)phenoxy)acetamido)benzoic acid] |
| −0.096 | CC(C)(C)c1ccccc1OCC(=O)Nc1ccc(S)cc1 [Compound 34, 2-(2-(tert-butyl)phenoxy)-N-(4-mercaptophenyl)acetamide] |
| 0.02456 | CC(C)(C)c1cc(Br)cc(Br)c1OCC(=O)Nc1ccc(O)cc1 [Compound 60, 2-(2,4-dibromo-6-(tert-butyl)phenoxy)-N-(4-hydroxyphenyl)acetamide] |

Test system: cell death induced by the NAMPT inhibitor FK866
Assay: Protection against cell death induced by the NAMPT inhibitor FK866 (Celltiter-Glo, cellular ATP)
Assay type: cell-based
Conditions: AUC of dose-response curve (0.1-10 μM) relative to AUC of NAT; 10 nM FK866, 72 hours, cell viability by ATP
Procedure: In the latter cell-based assay, we determined the degree of protection of NAT and derivatives thereof against the NAMPT inhibitor FK866. […] After 72 hours, Celltiter-Glo (Promega) was used to detect cellular ATP levels to reflect cell viability and normalized to the DMSO group. A dose-response curve was drawn to evaluate the cytoprotective activity of individual compounds against FK866. Then the area under the dose-response curve (AUC, area under curve) of each compound was calculated and compared with the AUC of NAT, so that the obtained relative value quantitatively expressed the cytoprotective activity of each compound.

| SMILES | Relative cytoprotective activity |
| --- | --- |
| CC(C)(C)c1cccc(OCC(=O)Nc2ccc(O)cc2)c1 [Compound 13, 2-(3-(tert-butyl)phenoxy)-N-(4-hydroxyphenyl)acetamide] | 0.2653 |
| CC(C)(C)c1ccc(OCC(=O)Nc2ccc(O)cc2)cc1 [Compound 14, 2-(4-(tert-butyl)phenoxy)-N-(4-hydroxyphenyl)acetamide] | 0.01994 |
| Cc1ccccc1OCC(=O)Nc1ccc(O)cc1 [Compound 15, N-(4-hydroxyphenyl)-2-(o-tolyloxy)acetamide] | 0.4402 |
| O=C(COc1ccccc1)Nc1ccc(O)cc1 [Compound 16, N-(4-hydroxyphenyl)-2-phenoxyacetamide] | 0.1684 |
| O=C(COc1ccccc1-c1ccccc1)Nc1ccc(O)cc1 [Compound 17, 2-([1,1′-biphenyl]-2-yloxy)-N-(4-hydroxyphenyl)acetamide] | 0.4572 |
| CC(C)(C)c1cccc(C(C)(C)C)c1OCC(=O)Nc1ccc(O)cc1 [Compound 18, 2-(2,6-di-tert-butylphenoxy)-N-(4-hydroxyphenyl)acetamide] | 0.04793 |
| Cc1cccc(OCC(=O)Nc2ccc(O)cc2)c1 [Compound 19, N-(4-hydroxyphenyl)-2-(m-tolyloxy)acetamide] | 0.09517 |
| CC(C)(C)c1cccc(C#N)c1OCC(=O)Nc1ccc(O)cc1 [Compound 21, 2-(2-(tert-butyl)-6-cyanophenoxy)-N-(4-hydroxyphenyl)acetamide] | 2.198 |
| CCc1ccc(OCC(=O)Nc2ccc(O)cc2)c(C(C)(C)C)c1 [Compound 54, 2-(2-(tert-butyl)-4-ethylphenoxy)-N-(4-hydroxyphenyl)acetamide] | 0.8554 |
| CC(C)(C)c1cc(F)ccc1OCC(=O)Nc1ccc(O)cc1 [Compound 56, 2-(2-(tert-butyl)-4-fluorophenoxy)-N-(4-hydroxyphenyl)acetamide] | 0.9846 |
| CC(C)(C)c1cccc(Br)c1OCC(=O)Nc1ccc(O)cc1 [Compound 59, 2-(2-bromo-6-(tert-butyl)phenoxy)-N-(4-hydroxyphenyl)acetamide] | 0.5085 |

Same assay, conditions: against FK866

| SMILES | cytoprotective activity (in words) |
| --- | --- |
| CC(C)(C)c1cccc(C#N)c1OCC(=O)Nc1ccc(O)cc1 [Compound 21, 2-(2-(tert-butyl)-6-cyanophenoxy)-N-(4-hydroxyphenyl)acetamide] | significantly improved compared with NAT |
